Source: patent US9168259B2 (GRÜNENTHAL GMBH, priority 2010, dated 2015)

Target: T1, KCNQ2/3 channels (Homo sapiens, UniProt O43525+O43526)
T1 construct: expressed in transfected cells
Assay: Fluorescence assay using a voltage sensitive dye (fluorimetry)
Type: cell-based
Conditions: CHO-K1 cells expressing KCNQ2/3; for Emax: CHO-K1, plateau effect relative to saturated retigabine (50 μM) = 100%, negative values = antagonistic, read-out: Fluorimetry % efficacy (retigabine = 100%); for EC50: IC50 where % efficacy is negative, read-out: Fluorimetry EC50/IC50

T1 sequence (O43526 whole entry): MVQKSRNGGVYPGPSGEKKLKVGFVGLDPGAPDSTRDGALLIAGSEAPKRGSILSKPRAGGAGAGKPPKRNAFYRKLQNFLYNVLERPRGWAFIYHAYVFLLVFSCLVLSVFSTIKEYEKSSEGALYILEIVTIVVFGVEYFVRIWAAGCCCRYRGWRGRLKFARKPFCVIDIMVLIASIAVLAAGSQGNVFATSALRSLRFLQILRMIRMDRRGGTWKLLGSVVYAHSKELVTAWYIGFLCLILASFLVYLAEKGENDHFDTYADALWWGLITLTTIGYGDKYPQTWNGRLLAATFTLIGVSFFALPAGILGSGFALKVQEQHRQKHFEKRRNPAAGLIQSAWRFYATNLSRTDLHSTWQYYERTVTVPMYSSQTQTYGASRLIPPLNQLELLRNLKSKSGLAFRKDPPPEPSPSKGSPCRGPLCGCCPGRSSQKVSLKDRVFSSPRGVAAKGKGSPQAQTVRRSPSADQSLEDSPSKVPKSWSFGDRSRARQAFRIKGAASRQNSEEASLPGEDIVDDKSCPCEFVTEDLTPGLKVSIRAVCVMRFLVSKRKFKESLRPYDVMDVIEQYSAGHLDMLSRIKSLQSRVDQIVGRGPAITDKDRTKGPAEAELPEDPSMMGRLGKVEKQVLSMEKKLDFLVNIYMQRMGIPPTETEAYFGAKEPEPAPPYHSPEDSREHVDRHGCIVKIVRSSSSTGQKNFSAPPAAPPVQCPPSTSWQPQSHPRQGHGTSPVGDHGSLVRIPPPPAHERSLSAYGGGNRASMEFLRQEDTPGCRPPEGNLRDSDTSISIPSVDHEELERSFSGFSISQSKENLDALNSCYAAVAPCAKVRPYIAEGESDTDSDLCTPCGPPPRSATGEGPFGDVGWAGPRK
T1 sequence (O43525 whole entry): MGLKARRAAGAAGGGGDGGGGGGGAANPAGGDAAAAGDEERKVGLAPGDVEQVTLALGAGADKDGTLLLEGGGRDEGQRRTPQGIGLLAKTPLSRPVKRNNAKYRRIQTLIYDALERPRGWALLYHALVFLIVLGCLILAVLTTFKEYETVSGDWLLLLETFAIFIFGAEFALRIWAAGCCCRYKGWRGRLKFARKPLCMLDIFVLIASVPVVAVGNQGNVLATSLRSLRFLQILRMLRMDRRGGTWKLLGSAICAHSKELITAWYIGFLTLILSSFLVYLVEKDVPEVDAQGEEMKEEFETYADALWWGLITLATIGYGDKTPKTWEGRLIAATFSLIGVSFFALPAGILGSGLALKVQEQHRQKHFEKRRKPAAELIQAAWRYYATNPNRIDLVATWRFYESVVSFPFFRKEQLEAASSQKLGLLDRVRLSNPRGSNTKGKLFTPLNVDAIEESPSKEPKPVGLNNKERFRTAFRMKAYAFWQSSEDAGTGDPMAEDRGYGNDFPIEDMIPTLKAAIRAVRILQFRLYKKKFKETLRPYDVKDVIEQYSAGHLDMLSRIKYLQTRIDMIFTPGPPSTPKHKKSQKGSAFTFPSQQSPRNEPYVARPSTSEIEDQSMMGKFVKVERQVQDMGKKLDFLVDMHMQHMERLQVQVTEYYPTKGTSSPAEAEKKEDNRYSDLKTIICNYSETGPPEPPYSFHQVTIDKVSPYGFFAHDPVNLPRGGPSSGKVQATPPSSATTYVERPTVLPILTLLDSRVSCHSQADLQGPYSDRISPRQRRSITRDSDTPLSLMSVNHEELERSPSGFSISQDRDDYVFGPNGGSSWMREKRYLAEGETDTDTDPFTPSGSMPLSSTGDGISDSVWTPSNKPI

Row | Emax [%] | EC50 [nM] | SMILES
1 | -61 | 107 | CCSc1nc(N2CCOCC2)cc(C)c1C(=O)NCc1ccc(F)cc1-c1ccc(F)cc1 [Example 85, 2-Ethylsulfanyl-N-[[4-fluoro-2-(4-fluorophenyl)-phenyl]-methyl]-4-methyl-6-morpholin-4-yl-pyridine-3-carboxylic acid amide]
2 | 236 | 172 | COc1nc(N2CCOCC2)cc(C)c1C(=O)NCCCC(C)(C)C [Example 86, N-(4,4-Dimethyl-pentyl)-2-methoxy-4-methyl-6-morpholin-4-yl-pyridine-3-carboxylic acid amide]
3 | 138 | 311 | COc1nc(N2CCOCC2)cc(C)c1C(=O)NCc1ccc(F)c(F)c1 [Example 87, N-[(3,4-Difluoro-phenyl)-methyl]-2-methoxy-4-methyl-6-morpholin-4-yl-pyridine-3-carboxylic acid amide]
4 | -83 | 253 | COc1nc(N2CCOCC2)cc(C)c1C(=O)NCc1ccccc1-c1ccccc1 [Example 88, 2-Methoxy-4-methyl-6-morpholin-4-yl-N-[(2-phenyl-phenyl)-methyl]-pyridine-3-carboxylic acid amide]
5 | 268 | 138 | CCOc1nc(N2CCOCC2)cc(C)c1C(=O)NCCCC(C)(C)C [Example 89, N-(4,4-Dimethyl-pentyl)-2-ethoxy-4-methyl-6-morpholin-4-yl-pyridine-3-carboxylic acid amide]
6 | 134 | 122 | CCOc1nc(N2CCOCC2)cc(C)c1C(=O)NCc1cc(F)cc(F)c1 [Example 90, N-[(3,5-Difluoro-phenyl)-methyl]-2-ethoxy-4-methyl-6-morpholin-4-yl-pyridine-3-carboxylic acid amide]
7 | 127 | 117 | CCOc1nc(N2CCOCC2)cc(C)c1C(=O)NCc1ccc(F)c(F)c1 [Example 91, N-[(3,4-Difluoro-phenyl)-methyl]-2-ethoxy-4-methyl-6-morpholin-4-yl-pyridine-3-carboxylic acid amide]
8 | -79 | 128 | CCOc1nc(N2CCOCC2)cc(C)c1C(=O)NCc1ccccc1-c1ccccc1 [Example 92, 2-Ethoxy-4-methyl-6-morpholin-4-yl-N-[(2-phenyl-phenyl)-methyl]-pyridine-3-carboxylic acid amide]
9 | 103 | 54 | CCSc1nc(N2CCOCC2)cc(C)c1C(=O)NCc1cc(F)cc(C(F)(F)F)c1 [Example 93, 2-Ethylsulfanyl-N-[[3-fluoro-5-(trifluoromethyl)-phenyl]-methyl]-4-methyl-6-morpholin-4-yl-pyridine-3-carboxylic acid amide]
10 | 111 | 39 | CCSc1nc(N2CCOCC2)cc(C)c1C(=O)NCc1cccc(C(F)(F)F)c1F [Example 94, 2-Ethylsulfanyl-N-[[2-fluoro-3-(trifluoromethyl)-phenyl]-methyl]-4-methyl-6-morpholin-4-yl-pyridine-3-carboxylic acid amide]
11 | 62 | 56 | CCSc1nc(N2CCOCC2)cc(C)c1C(=O)NCc1cc(C(F)(F)F)ccc1F [Example 95, 2-Ethylsulfanyl-N-[[2-fluoro-5-(trifluoromethyl)-phenyl]-methyl]-4-methyl-6-morpholin-4-yl-pyridine-3-carboxylic acid amide]
12 | 173 | 1100 | CCSc1nc(N2CCCOCC2)cc(C)c1C(=O)NCc1cccc(F)c1 [Example 96, 2-Ethylsulfanyl-N-[(3-fluorophenyl)-methyl]-4-methyl-6-([1,4]oxazepan-4-yl)-pyridine-3-carboxylic acid amide]
13 | 136 | 67 | CCSc1nc(N2CCOCC2)cc(C)c1C(=O)NCc1ccc(OC(F)(F)F)cc1 [Example 97, 2-Ethylsulfanyl-4-methyl-6-morpholin-4-yl-N-[[4-(trifluoromethyloxy)-phenyl]methyl]-pyridine-3-carboxylic acid amide]
